Test results from patent US11304916B2 (priority 2019, dated 2022).
“Also recorded” adds a separate entry of the source. Where two headings read alike, the source gives them in different places.

Columns and labels:
[1] = test system: transport of STx2B to the Golgi apparatus; assay type: cell-based, human
STx2-induced cell death = assay type: cell-based, human
[2] = test system: pH of endolysosomal compartments; assay type: cell-based, human
[3] = test system: recruitment of retromer component Vps26 to early endosomes; assay type: cell-based, human
HeLa cells = details: 10 μM
[4] = test system: transport of STx2B to the Golgi apparatus; details: cited from earlier work
[5] = test system: transport of STx1 B-subunit (STx1B) to the Golgi; details: cited from earlier work
lethal STx1 toxicosis [6] = details: mouse, in vivo; cited from earlier work
[7] = test system: transport of STx1 B-subunit (STx1B) to the Golgi; assay type: cell-based, human
STx1-induced cell death = assay type: cell-based, human
LC3-positive punctae = assay type: cell-based, human
lethal STx1 toxicosis [8] = details: mouse, in vivo
lethal STx2 toxicosis = details: mouse, in vivo

## CN(C)CCOc1ccc(/C(=C(/CCCl)c2ccccc2)c2ccccc2)cc1 [toremifene, (Z)-2-(4-(4-chloro-1,2-diphenylbut-1-en-1-yl)phenoxy)-N,N-dimethylethan-1-amine]
[1]; 10 μM
  Transport of STx2B to the Golgi (data not shown): blocked transport of STx2B to the Golgi
STx2-induced cell death
  Protection against STx2-induced cell death relative to tamoxifen: provided as much protection as tamoxifen against STx2-induced cell death
[2]; 10 μM, 30 min
  Endolysosomal pH at 30 min (data not shown): increased endolysosomal pH at 30 min
[3]; 10 μM
  Recruitment of Vps26 to early endosomes: increased Vps26 levels on early endosomes at 24 h
HeLa cells
  Cytotoxicity / cell viability of compound by itself: did not alter cell viability by themselves

## CC/C(=C(\c1ccc(O)cc1)c1ccc(OCCNC)cc1)c1ccccc1 [endoxifen, (Z)-4-(1-(4-(2-(methylamino)ethoxy)phenyl)-2-phenylbut-1-en-1-yl)phenol]
STx2-induced cell death
  Protection against STx2-induced cell death relative to tamoxifen: substantially weaker than tamoxifen or 4-hydroxytamoxifen

## CO/C1=C\C(C)=C\[C@@H](C)[C@@H](O)[C@@H](C)C/C(C)=C/C=C/[C@H](OC)[C@@H]([C@@H](C)[C@@H](O)[C@H](C)[C@@]2(O)C[C@@H](O)[C@H](C)[C@@H](C(C)C)O2)OC1=O [bafilomycin A1]
[1]
  STx2B transport after short treatment: did not have an effect; also recorded: There were no differences between groups
  Transport of STx2B to the Golgi apparatus: robustly inhibited the transport of STx2B to the Golgi apparatus
[2]
  Change in endolysosomal pH (Lysosensor signal): a similar effect was observed
  Morphology of endolysosomal compartments: morphological differences were apparent

## CCN(CC)CCCC(C)Nc1ccnc2cc(Cl)ccc12 (stereo not drawn) [chloroquine]
[1]
  Transport of STx2B to the Golgi apparatus: inhibitors of STx2B transport

## [Mn+2] [manganese]
[4]
  Sensitivity of STx2 transport to manganese (literature): manganese-insensitive
[5]
  Early endosome-to-Golgi transport of STx1 (literature): blocks the early endosome-to-Golgi transport of STx1
Lethal STx1 toxicosis [6]
  Protection against lethal STx1-toxicosis (literature): protects cells and mice against lethal STx1-toxicosis

## CC/C(=C(\c1ccccc1)c1ccc(OCCN(C)C)cc1)c1ccccc1 [tamoxifen, (Z)-2-(4-(1,2-diphenyl-1-butenyl)phenoxy)-N,N-dimethylethan-1-amine]
[1]
  Fate of STx2B in treated cells: the toxin failed to traffic to the Golgi and instead was rerouted to Rab7-positive late endosomes and degraded
  STx2B transport after short treatment: did not have an effect; also recorded: There were no differences between groups
  Transport of STx2B to the Golgi apparatus: inhibitors of STx2B transport
[1]; 24 h
  Inhibitory effect on STx2B transport compared with chloroquine: had a greater inhibitory effect
[7]
  Transport of STx1B to the Golgi and STx1B degradation: inhibited the transport of STx1 B-subunit (STx1B) to the Golgi and induced degradation of STx1B
STx2-induced cell death
  Lowest tamoxifen dose at which protection was evident: 2.5 µM
  Protection against STx2-induced cell death: ~200 fold
STx1-induced cell death
  Protection against STx1-induced cell death: ~50 fold
[2]
  Change in endolysosomal pH (Lysosensor signal): an increase evident at early time-points (30-60 min) but not 24 h after treatment
  Morphology of endolysosomal compartments: morphological differences were apparent
[3]
  Positioning of early endosomes: gained a perinuclear prominence
[3]; 10 μM
  Recruitment of Vps26 to early endosomes: enhanced
LC3-positive punctae
  LC3-positive punctae: elevated
Lethal STx1 toxicosis [8]
  Health until end of experiment, STx1-group: a subset of tamoxifen-treated mice remained healthy until the end of the experiment
Lethal STx1 toxicosis [8]; ip
  Survival of STx1-treated mice: significantly improved the survival
Lethal STx2 toxicosis
  Protection against STx2 with additional oral tamoxifen after toxin: A similar level of protection against STx2
  Survival time versus vehicle, STx2: survived for significantly longer than those that received vehicle
Lethal STx2 toxicosis; ip
  Survival of STx2-treated mice: significantly improved the survival
HeLa cells
  Cytotoxicity / cell viability of compound by itself: without inducing cytotoxicity

## OCCOc1ccc(/C(=C(/CCCl)c2ccccc2)c2ccccc2)cc1 [ospemifene]
[1]
  Transport of STx2B to the Golgi (data not shown): did not
STx2-induced cell death
  Protection against STx2-induced cell death relative to tamoxifen: failed to protect all together
[3]
  Recruitment of Vps26 to early endosomes: did not

## O=C(c1ccc(OCCN2CCCCC2)cc1)c1c(-c2ccc(O)cc2)sc2cc(O)ccc12 [raloxifene, (6-hydroxy-2-(4-hydroxyphenyl)benzo[b]thiophen-3-yl)(4-(2-(piperidin-1-yl)ethoxy)phenyl)methanone]
STx2-induced cell death
  Protection against STx2-induced cell death relative to tamoxifen: provided as much protection as tamoxifen against STx2-induced cell death
HeLa cells
  Cytotoxicity / cell viability of compound by itself: did not alter cell viability by themselves

## CC/C(=C(\c1ccc(O)cc1)c1ccc(OCCN(C)C)cc1)c1ccccc1 [4-hydroxytamoxifen, (Z)-4-(1-(4-(2-(dimethylamino)ethoxy)phenyl)-2-phenylbut-1-en-1-yl)phenol]
STx2-induced cell death
  Protection against STx2-induced cell death relative to tamoxifen: A lower level of protection
